The values below come from ChEMBL document CHEMBL4431314, “Computer-aided drug design guided by hydrogen/deuterium exchange mass spectrometry: A powerful combination for the development of potent and selective inhibitors of Group VIA calcium-independent phospholipase A2” (Bioorg Med Chem, 2016).

The target in assay [1] is T1, 85/88 kDa calcium-independent phospholipase A2 (Homo sapiens) (UniProt O60733).
T1 sequence (whole entry): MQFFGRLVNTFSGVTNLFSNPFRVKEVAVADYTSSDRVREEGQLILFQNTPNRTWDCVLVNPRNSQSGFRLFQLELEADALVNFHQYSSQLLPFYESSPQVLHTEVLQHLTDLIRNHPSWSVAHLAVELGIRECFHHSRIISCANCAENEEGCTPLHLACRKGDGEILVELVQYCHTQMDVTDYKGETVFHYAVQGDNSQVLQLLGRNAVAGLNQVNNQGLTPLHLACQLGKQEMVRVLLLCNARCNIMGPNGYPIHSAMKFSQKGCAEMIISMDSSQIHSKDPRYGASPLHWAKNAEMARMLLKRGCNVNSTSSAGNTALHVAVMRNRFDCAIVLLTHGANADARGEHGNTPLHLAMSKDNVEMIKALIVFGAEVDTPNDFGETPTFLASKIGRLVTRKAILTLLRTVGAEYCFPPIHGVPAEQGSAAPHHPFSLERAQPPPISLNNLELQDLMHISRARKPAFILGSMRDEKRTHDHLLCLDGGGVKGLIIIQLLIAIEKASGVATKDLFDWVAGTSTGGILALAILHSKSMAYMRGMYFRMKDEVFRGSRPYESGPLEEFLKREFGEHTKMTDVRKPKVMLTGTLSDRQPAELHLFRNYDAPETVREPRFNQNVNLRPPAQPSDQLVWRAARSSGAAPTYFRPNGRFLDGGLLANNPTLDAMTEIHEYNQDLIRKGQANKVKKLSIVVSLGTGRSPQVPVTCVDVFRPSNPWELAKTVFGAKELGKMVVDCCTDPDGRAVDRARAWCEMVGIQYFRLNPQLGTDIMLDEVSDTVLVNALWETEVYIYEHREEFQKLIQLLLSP
The assay can be described thus: Inhibition of N-terminal 6xHis-tag human group VIA calcium-independent PLA2 expressed in fall armyworm sf9 cells using PAPC/arachidonyl-1-14C PAPC as substrate by mixed micelle modified Dole assay.

Assay [2] deals with T1, 85/88 kDa calcium-independent phospholipase A2 (Homo sapiens). Nature of the assay: Inhibition of N-terminal 6xHis-tag human group VIA calcium-independent PLA2 expressed in fall armyworm sf9 cells at 0.091 mol fraction using PAPC/arachidonyl-1-14C PAPC as substrate by mixed micelle modified Dole assay.
The target in assay [3] is T2, Cytosolic phospholipase A2 (Homo sapiens) (UniProt P47712).
T2 sequence (whole entry): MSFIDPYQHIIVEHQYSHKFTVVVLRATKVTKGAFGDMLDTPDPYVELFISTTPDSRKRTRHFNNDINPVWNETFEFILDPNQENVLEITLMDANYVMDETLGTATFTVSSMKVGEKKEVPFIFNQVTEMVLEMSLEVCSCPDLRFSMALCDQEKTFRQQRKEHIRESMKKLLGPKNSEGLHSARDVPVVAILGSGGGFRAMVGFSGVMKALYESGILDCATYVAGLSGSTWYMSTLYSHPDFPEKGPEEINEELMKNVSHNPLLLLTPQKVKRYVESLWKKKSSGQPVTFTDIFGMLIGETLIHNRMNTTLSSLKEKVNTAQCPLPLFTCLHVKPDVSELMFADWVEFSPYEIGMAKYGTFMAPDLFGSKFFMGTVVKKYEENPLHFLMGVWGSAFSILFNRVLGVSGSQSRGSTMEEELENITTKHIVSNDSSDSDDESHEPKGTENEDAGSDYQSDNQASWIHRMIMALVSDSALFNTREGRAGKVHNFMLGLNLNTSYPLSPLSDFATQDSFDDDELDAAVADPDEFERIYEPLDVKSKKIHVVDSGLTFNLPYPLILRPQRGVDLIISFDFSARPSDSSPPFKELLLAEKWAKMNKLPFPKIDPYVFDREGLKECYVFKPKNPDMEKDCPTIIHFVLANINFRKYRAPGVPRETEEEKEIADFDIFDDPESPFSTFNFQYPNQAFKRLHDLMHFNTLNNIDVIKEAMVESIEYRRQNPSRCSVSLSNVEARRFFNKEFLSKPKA
Nature of the assay: Inhibition of C-terminal 6xHis-tagged human group IVA cytosolic PLA2 expressed in fall armyworm sf9 cells at 0.091 mol fraction using PAPC/arachidonyl-1-14C PAPC as substrate by mixed micelle modified Dole assay.

The species named for assay [4] is Homo sapiens. The assay can be described thus: Inhibition of His-tagged human group V human secretory PLA2 expressed in Escherichia coli BL21 cells at 0.091 mol fraction using PAPC/arachidonyl-1-14C PAPC as substrate by mixed micelle modified Dole assay.
The target in assay [5] is T1, 85/88 kDa calcium-independent phospholipase A2 (Homo sapiens). The assay can be described thus: Binding affinity to Group VIA calcium-independent PLA2 (unknown origin) (481 to 493 residues) assessed as change in average deuteration level preincubated for 30 mins followed by D2O addition measured after 10 to 10000 secs by DXMS analysis.
Assay [6] shares this target. Nature of the assay: Binding affinity to Group VIA calcium-independent PLA2 (unknown origin) (514 to 524 residues) assessed as change in average deuteration level preincubated for 30 mins followed by D2O addition measured after 10 to 10000 secs by DXMS analysis.
Assay [7] has the same target. The assay can be described thus: Binding affinity to Group VIA calcium-independent PLA2 (unknown origin) (542 to 562 residues) assessed as change in average deuteration level preincubated for 30 mins followed by D2O addition measured after 10 to 10000 secs by DXMS analysis.
Assay [8] has the same target. The assay can be described thus: Binding affinity to Group VIA calcium-independent PLA2 (unknown origin) (630 to 655 residues) assessed as change in average deuteration level preincubated for 30 mins followed by D2O addition measured after 10 to 10000 secs by DXMS analysis.
The target is the same in assay [9]. Nature of the assay: Binding affinity to Group VIA calcium-independent PLA2 (unknown origin) (656 to 664 residues) assessed as change in average deuteration level preincubated for 30 mins followed by D2O addition measured after 10 to 10000 secs by DXMS analysis.
Assay [10] shares this target. Nature of the assay: Binding affinity to Group VIA calcium-independent PLA2 (unknown origin) (718 to 730 residues) assessed as change in average deuteration level preincubated for 30 mins followed by D2O addition measured after 10 to 10000 secs by DXMS analysis.
Assay [11] has the same target. Nature of the assay: Binding affinity to Group VIA calcium-independent PLA2 (unknown origin) (770 to 778 residues) assessed as change in average deuteration level preincubated for 30 mins followed by D2O addition measured after 10 to 10000 secs by DXMS analysis.
Assay [12] has the same target. The assay can be described thus: Competitive-reversible inhibition of N-terminal 6xHis-tag human group VIA calcium-independent PLA2 expressed in fall armyworm sf9 cells using PAPC/arachidonyl-1-14C PAPC as substrate by mixed micelle modified Dole assay.
Assay [13] deals with T2, Cytosolic phospholipase A2 (Homo sapiens). Nature of the assay: Inhibition of C-terminal 6xHis-tagged human group IVA cytosolic PLA2 expressed in fall armyworm sf9 cells using PAPC/arachidonyl-1-14C PAPC as substrate by mixed micelle modified Dole assay.

Turning to `O=C(CSc1ccc(Br)cc1)C(F)(F)F`, the XI50 (mole fraction) in [1] amounted to 0.0071. Besides, the figures for the inhibition in assay [2], in assay [3] and in assay [4] were 97%, 82% and 35%, respectively. The pXI50 in assay [2] came to 2.2.
Take `CCCCCCOCC(O)C(F)(F)F` (stereo not given): the inhibition in assay [2] amounted to 43%; in [3], 58%; in assay [4], 35%.
With `O=C(CSc1ccccc1)C(F)(F)F`, the inhibition in assay [2] worked out at 89%; in assay [3], 75%; in [4], 27%.
On the same counts, the results for `O=C(C[Se]c1ccccc1)C(F)(F)F` are 46%, 18% and 44%.
In the case of `CCCCCCS(=O)(=O)CC(O)(O)C(F)(F)F`, the results for the inhibition in assay [2], in [3] and in assay [4] were 71%, 14% and 0%, respectively.
With `CCCCCCCCSCC(=O)C(F)(F)F`, the inhibition in assay [2] was 99%; in assay [3], 82%; in [4], 68%. For the same molecule, the pXI50 in [2] was determined as 3.7. Also, the Activity in assay [5] is 16%; in assay [6] it was 13%; in [7], 18%; in assay [8], 12%; in assay [9], 12%; in [10] it was 13%. For the same molecule, in assay [11], the Activity came out at 20%. The XI50 (mole fraction) in assay [12] came to 0.0002.
As to `O=C(CSc1c(Cl)cccc1Cl)C(F)(F)F`, the XI50 (mole fraction) in assay [1] came out at 0.0049. Also, the inhibition in [2] came to 99%; in assay [3] it was 91%; in [4], 43%. Moreover, the pXI50 in [2] came out at 2.3.
Turning to `CCCCCCS(=O)(=O)CC(O)C(F)(F)F` (stereo not given), the inhibition in [2] worked out at 15%; in assay [3], 5%; in assay [4] it was 16%.
On the same counts, the results for `O=C(CSc1ccc([N+](=O)[O-])cc1)C(F)(F)F` are 52%, 26% and 17%.
Turning to `CCCCSCC(=O)C(F)(F)F`, the XI50 (mole fraction) in assay [1] was 0.07. In addition, the inhibition stood at 91% in assay [2], 46% in [3] and 14% in [4]. In addition, the pXI50 in assay [2] turned out to be 1.2.
On to `CCCCCCCCCCCCS(=O)(=O)CC(O)(O)C(F)(F)F`, for which the inhibition in assay [2] amounted to 52%; in [3], 34%; in assay [4], 44%.
`O=C(CSCCc1ccccc1)C(F)(F)F`: in assay [1], the XI50 (mole fraction) amounted to 0.00059. The inhibition in [2] was 100%; in [3], 92%; in [4], 61%. In addition, in [2], the pXI50 was 3.2.
For `O=C(CSc1ccc(F)cc1)C(F)(F)F`, the results for the inhibition in assay [2], in assay [3] and in assay [4] were 46%, 24% and 14%, respectively.
As for `CCCCCCCCCCCCSCC(=O)C(F)(F)F`, the XI50 (mole fraction) in [1] was determined as 0.0043. Moreover, the figures for the inhibition in assay [2], in assay [3] and in assay [4] were 97%, 83% and 87%, respectively. Also, the pXI50 in assay [2] is 2.4.
As for `CCCCCCCCCCSCC(=O)C(F)(F)F`, the XI50 (mole fraction) in assay [1] worked out at 0.00041; in [13], 0.008. Besides, the results for the inhibition in assay [2], in assay [3] and in assay [4] were 99%, 100% and 78%, respectively. Moreover, in [2], the pXI50 came out at 3.4.
`CCCCCCCCS(=O)(=O)CC(O)C(F)(F)F` (stereo not given): the inhibition was 24% in assay [2], 5% in assay [3] and 23% in assay [4].
With `COc1ccc(SCC(=O)C(F)(F)F)cc1`, in assay [1], the XI50 (mole fraction) was determined as 0.011. Besides, the inhibition in assay [2] is 93%; in assay [3], 70%; in [4], 16%. The pXI50 in assay [2] was 2.
For the molecule `O=C(CSc1cccc(Cl)c1)C(F)(F)F`, the XI50 (mole fraction) in [1] was 0.011. Moreover, the inhibition in assay [2] is 98%; in [3] it was 91%; in assay [4], 46%. The pXI50 in assay [2] stood at 2.
On to `Cc1ccc(SCC(=O)C(F)(F)F)cc1`, for which, in [1], the XI50 (mole fraction) amounted to 0.009. The inhibition in assay [2] was 95%; in assay [3], 61%; in [4], 18%. Also, in assay [2], the pXI50 is 2.1.
Turning to `CCCCCCSCC(=O)C(F)(F)F`, the XI50 (mole fraction) in assay [1] came out at 0.00052. The results for the inhibition in assay [2], in assay [3] and in assay [4] were 99%, 77% and 33%, respectively. In addition, the pXI50 in assay [2] is 3.3.
As to `CCCCCCCCCCCCS(=O)(=O)CC(O)C(F)(F)F` (stereo not given), the inhibition was 32% in [2], 2% in [3] and 80% in assay [4].
As for `CCCCCCOCC(=O)C(F)(F)F`, the XI50 (mole fraction) in assay [1] amounted to 0.006. Further, the inhibition came out at 99% in assay [2], 76% in assay [3] and 35% in [4]. Besides, the pXI50 in assay [2] came out at 2.2.
In the case of `O=C(CSc1ccc(Cl)cc1)C(F)(F)F`, the XI50 (mole fraction) in assay [1] was 0.011. Besides, the figures for the inhibition in assay [2], in assay [3] and in assay [4] were 95%, 82% and 23%, respectively. The pXI50 in assay [2] came to 2.
As to `CCCCCCCCCCCSCC(=O)C(F)(F)F`, the figures for the XI50 (mole fraction) in [1] and in assay [13] were 0.0007 and 0.014, respectively. Besides, the inhibition in assay [2] amounted to 98%; in [3] it was 98%; in [4] it was 73%. In addition, in [2], the pXI50 stood at 3.2.
In the case of `O=C(c1ccc(C2CCCCC2)s1)C(F)(F)F`, the inhibition was 39% in assay [2], 60% in assay [3] and 66% in [4].
For `CCCCCCCCS(=O)(=O)CC(O)(O)C(F)(F)F`, the inhibition is 82% in assay [2], 19% in [3] and 18% in assay [4].
